Values joined by “and” are separate entries in the source; they are usually repeats but may differ in a detail not shown here. Identical values can stand only once.
What was measured:
ALK fusion = experiment: Phase I clinical trial: biomarker analysis of 26 subjects previously treated with at least one ALK inhibitor
[1] = test system: Ba/F3 (EML4-ALK G1202R) cell line; experiment: Anti-tumor effect in subcutaneous transplanted Ba/F3 (EML4-ALK G1202R) model; type: in vivo, NOD-SCID mice; settings: for average tumor volume: 16th day after administration
Source text: Example 2: The anti-tumor effect in the subcutaneous transplanted animal model of Ba/F3 (EML4-ALK G1202R) cell line in female NOD-SCID mice.
Laboratory animals: NOD-SCID mice, female, 7 to 8 weeks old (the age of mice at tumor cell inoculation), weighing 16.0 to 20.3 g, and 50 mice (with additional 30 surplus mice). […] Housing environment: SPF grade.
Environmental conditions of the housing room of the laboratory animals: All the laboratory animals were housed in individually ventilated cages with constant temperature and constant humidity. The temperature of the housing room was 20 to 26 °C, the humidity was 40 to 70%, the ventilation was 10 to 20 times/hour, and the day/night light/dark cycle was 12h/12h. The animals were continuously provided with cobalt-60 irradiated complete pelleted mouse feed with unlimited free access. The animals drank tap water (used after being autoclaved), which was provided continuously from water bottles, allowing for free access. The cages for raising the mice were polysulfone mice cages, which were autoclaved before use, and measured 325 mm × 210 mm × 180 mm. The bedding was autoclaved corn cobs. Each cage contained 5 animals. […] The laboratory animals were marked with ear tags or ear labels.
Cell culture: Ba/F3 (EML4-ALK G1202R) cells (cell number: ECL-00031) were cultured in RPMI 1640 culture medium containing 10% fetal bovine serum. The Ba/F3 (EML4-ALK G1202R) cells in the exponential growth phase were collected, resuspended in PBS to a suitable concentration, and then subcutaneously inoculated for tumor formation.
Assay method: Female NOD/SCID mice were subcutaneously inoculated with 2×10^6 Ba/F3 (EML4-ALK G1202R) cells on the right side to establish a subcutaneous tumor transplantation model. […] The mice were administered orally via gavage once daily. The efficacy was evaluated based on the relative tumor growth inhibition rate (TGI), and the safety was evaluated based on the changes in the body weight and mortality of the animals.
All the procedures, including drug administration, tumor measurement, weight measurement, etc., were performed in a biosafety cabinet or on a clean bench.
The relative tumor growth rate (T/C%) was the percentage value of the relative tumor volume between a treatment group and the control group at a certain time point, or the percentage value of the tumor weight between a treatment group and the control group. […]

[2] = bypass signaling alteration BRCA1
[3] = bypass signaling alteration BRCA2
[4] = bypass signaling alteration CCNE1
[5] = bypass signaling alteration CDKN2A
[6] = bypass signaling alteration EGFR
[7] = bypass signaling alteration IGF1R
[8] = bypass signaling alteration KIT
[9] = bypass signaling alteration MET
[10] = bypass signaling alteration RB1
[11] = bypass signaling alteration TP53

`[2H]C([2H])([2H])n1nc2c(c1C#N)-c1cnc(N)c(c1)O[C@H](C)c1cc(F)ccc1C(=O)N(C)C2` [compound A, (10R)-7-amino-12-fluoro-2-(methyl-d3)-10,16-dimethyl-15-oxo-10,15,16,17-tetrahydro-2H-8,4-(metheno)pyrazolo[4,3-h][2,5,11]benzoxadiazacyclotetradecine-3-carbonitrile] was tested, and the “PFS, mutant TP53 versus wild-type TP53” value (ALK fusion; ALK TKI resistance subgroup, P=0.235) was “no difference”, the “Disease control rate (CR + PR + SD)” value (ALK fusion; ALK fusion (all 26 subjects)) was 20/26 and the “Overall response rate (CR + PR)” value (ALK fusion; ALK fusion (all 26 subjects)) was 11/26. The Partial response (ALK fusion; ALK fusion (all 26 subjects)) was 11 and 11/26, the Progressive disease (ALK fusion; ALK fusion (all 26 subjects)) was 6/26 and the Stable disease (ALK fusion; ALK fusion (all 26 subjects)) was 9/26. For the same molecule, the “Disease control rate (CR + PR + SD)” value (ALK fusion; ALK fusion V1) was 4/6, the “Overall response rate (CR + PR)” value (ALK fusion; ALK fusion V1) was 2/6 and the Partial response (ALK fusion; ALK fusion V1) was 2/6. The Progressive disease (ALK fusion; ALK fusion V1) was 2/6, the Stable disease (ALK fusion; ALK fusion V1) was 2/6 and the “Disease control rate (CR + PR + SD)” value (ALK fusion; ALK fusion V2) was 3/3. The “Overall response rate (CR + PR)” value (ALK fusion; ALK fusion V2) was 1/3, the Partial response (ALK fusion; ALK fusion V2) was 1/3 and the Progressive disease (ALK fusion; ALK fusion V2) was 0/3. The Stable disease (ALK fusion; ALK fusion V2) was 2/3, the “Disease control rate (CR + PR + SD)” value (ALK fusion; ALK fusion V3) was 7/8 and the “Overall response rate (CR + PR)” value (ALK fusion; ALK fusion V3) was 5/8. The Partial response (ALK fusion; ALK fusion V3) was 5/8, the Progressive disease (ALK fusion; ALK fusion V3) was 1/8 and the Stable disease (ALK fusion; ALK fusion V3) was 2/8. The “Disease control rate (CR + PR + SD)” value (ALK fusion; ALK fusion V5) was 1/1, the “Overall response rate (CR + PR)” value (ALK fusion; ALK fusion V5) was 1/1 and the Partial response (ALK fusion; ALK fusion V5) was 1/1. For the same molecule, the Progressive disease (ALK fusion; ALK fusion V5) was 0/1, the Stable disease (ALK fusion; ALK fusion V5) was 0/1 and the “Disease control rate (CR + PR + SD)” value (ALK fusion; ALK fusion others) was 5/8. For the same molecule, the “Overall response rate (CR + PR)” value (ALK fusion; ALK fusion others) was 2/8, the Partial response (ALK fusion; ALK fusion others) was 2/8 and the Progressive disease (ALK fusion; ALK fusion others) was 3/8. For the same molecule, the Stable disease (ALK fusion; ALK fusion others) was 3/8, the “Disease control rate (CR + PR + SD)” value (ALK fusion; ALK mutation (any)) was 10/12 and the “Overall response rate (CR + PR)” value (ALK fusion; ALK mutation (any)) was 5/12. The Partial response (ALK fusion; ALK mutation (any)) was 5/12, the Progressive disease (ALK fusion; ALK mutation (any)) was 2/12 and the Stable disease (ALK fusion; ALK mutation (any)) was 5/12. The “Disease control rate (CR + PR + SD)” value (ALK fusion; ALK mutation p.E1210K p.D1203N) was 0/1, the “Overall response rate (CR + PR)” value (ALK fusion; ALK mutation p.E1210K p.D1203N) was 0/1 and the Partial response (ALK fusion; ALK mutation p.E1210K p.D1203N) was 0/1. The Progressive disease (ALK fusion; ALK mutation p.E1210K p.D1203N) was 1/1, the Stable disease (ALK fusion; ALK mutation p.E1210K p.D1203N) was 0/1 and the “Disease control rate (CR + PR + SD)” value (ALK fusion; ALK mutation p.G1202R) was 5/6. For the same molecule, the “Overall response rate (CR + PR)” value (ALK fusion; ALK mutation p.G1202R) was 3/6, the Partial response (ALK fusion; ALK mutation p.G1202R) was 3/6 and the Progressive disease (ALK fusion; ALK mutation p.G1202R) was 1/6. The Stable disease (ALK fusion; ALK mutation p.G1202R) was 2/6, the “Disease control rate (CR + PR + SD)” value (ALK fusion; ALK mutation p.I1171N) was 1/1 and the “Overall response rate (CR + PR)” value (ALK fusion; ALK mutation p.I1171N) was 0/1. For the same molecule, the Partial response (ALK fusion; ALK mutation p.I1171N) was 0/1, the Progressive disease (ALK fusion; ALK mutation p.I1171N) was 0/1 and the Stable disease (ALK fusion; ALK mutation p.I1171N) was 1/1. For the same molecule, the “Disease control rate (CR + PR + SD)” value (ALK fusion; ALK mutation p.I1171T) was 1/1, the “Overall response rate (CR + PR)” value (ALK fusion; ALK mutation p.I1171T) was 0/1 and the Partial response (ALK fusion; ALK mutation p.I1171T) was 0/1. The Progressive disease (ALK fusion; ALK mutation p.I1171T) was 0/1, the Stable disease (ALK fusion; ALK mutation p.I1171T) was 1/1 and the “Disease control rate (CR + PR + SD)” value (ALK fusion; [2]) was 0/1. For the same molecule, the “Overall response rate (CR + PR)” value (ALK fusion; [2]) was 0/1, the Partial response (ALK fusion; [2]) was 0/1 and the Progressive disease (ALK fusion; [2]) was 1/1. For the same molecule, the Stable disease (ALK fusion; [2]) was 0/1, the “Disease control rate (CR + PR + SD)” value (ALK fusion; [3]) was 1/1 and the “Overall response rate (CR + PR)” value (ALK fusion; [3]) was 1/1. For the same molecule, the Partial response (ALK fusion; [3]) was 1/1, the Progressive disease (ALK fusion; [3]) was 0/1 and the Stable disease (ALK fusion; [3]) was 0/1. For the same molecule, the “Disease control rate (CR + PR + SD)” value (ALK fusion; [4]) was 1/1, the “Overall response rate (CR + PR)” value (ALK fusion; [4]) was 1/1 and the Partial response (ALK fusion; [4]) was 1/1. For the same molecule, the Progressive disease (ALK fusion; [4]) was 0/1, the Stable disease (ALK fusion; [4]) was 0/1 and the “Disease control rate (CR + PR + SD)” value (ALK fusion; [5]) was 1/1. The “Overall response rate (CR + PR)” value (ALK fusion; [5]) was 0/1, the Partial response (ALK fusion; [5]) was 0/1 and the Progressive disease (ALK fusion; [5]) was 0/1. For the same molecule, the Stable disease (ALK fusion; [5]) was 1/1, the “Disease control rate (CR + PR + SD)” value (ALK fusion; [6]) was 1/1 and the “Overall response rate (CR + PR)” value (ALK fusion; [6]) was 0/1. The Partial response (ALK fusion; [6]) was 0/1, the Progressive disease (ALK fusion; [6]) was 0/1 and the Stable disease (ALK fusion; [6]) was 1/1. The “Disease control rate (CR + PR + SD)” value (ALK fusion; [7]) was 0/1, the “Overall response rate (CR + PR)” value (ALK fusion; [7]) was 0/1 and the Partial response (ALK fusion; [7]) was 0/1. The Progressive disease (ALK fusion; [7]) was 1/1, the Stable disease (ALK fusion; [7]) was 0/1 and the “Disease control rate (CR + PR + SD)” value (ALK fusion; [8]) was 1/1. For the same molecule, the “Overall response rate (CR + PR)” value (ALK fusion; [8]) was 1/1, the Partial response (ALK fusion; [8]) was 1/1 and the Progressive disease (ALK fusion; [8]) was 0/1. The Stable disease (ALK fusion; [8]) was 0/1, the “Disease control rate (CR + PR + SD)” value (ALK fusion; [9]) was 2/2 and the “Overall response rate (CR + PR)” value (ALK fusion; [9]) was 1/2. The Partial response (ALK fusion; [9]) was 1/2, the Progressive disease (ALK fusion; [9]) was 0/2 and the Stable disease (ALK fusion; [9]) was 1/2. The “Disease control rate (CR + PR + SD)” value (ALK fusion; [10]) was 0/1, the “Overall response rate (CR + PR)” value (ALK fusion; [10]) was 0/1 and the Partial response (ALK fusion; [10]) was 0/1. The Progressive disease (ALK fusion; [10]) was 1/1, the Stable disease (ALK fusion; [10]) was 0/1 and the “Disease control rate (CR + PR + SD)” value (ALK fusion; [11]) was 7/9. For the same molecule, the “Overall response rate (CR + PR)” value (ALK fusion; [11]) was 4/9, the Partial response (ALK fusion; [11]) was 4/9 and the Progressive disease (ALK fusion; [11]) was 2/9. The Stable disease (ALK fusion; [11]) was 3/9, the ORR (ALK fusion; subjects with G1202R mutation) was 50% and the ORR (ALK fusion; subjects with variant 1) was 33.3%. The ORR (ALK fusion; subjects with variant 3) was 62.5%, the average tumor volume ([1]; 1.5 mg/kg p.o. once daily) was 2139.18 mm^3 and the average tumor volume ([1]; 5 mg/kg p.o. once daily) was 576.11 mm^3. The average tumor volume ([1]; 15 mg/kg p.o. once daily) was 0.25 mm^3 and the “tumor-bearing mice with tumor volume reduced to 0” value ([1]; 15 mg/kg, end of the assay) was 9/10.
